In PMC7064328 (Environmental Health Perspectives, 2020):
Values joined by “and” are separate entries in the source; they are usually repeats but may differ in a detail not shown here. Equal values may be shown once. Read-outs that look alike come from different tables or passages of the source.

Legend:
rats = details: ref Conley et al. 2019, cited from earlier work
CD-1 mice = details: cited from earlier work
[1] = parameters: method as in Gannon et al. 2016; details: rats; ref Gannon et al. 2016; cited from earlier work
[2] = parameters: method as in Gannon et al. 2016; details: mice; ref Gannon et al. 2016; cited from earlier work
Pregnant CD-1 mice = experiment: Maternal indices: dam body weight, gestational weight gain, liver and kidney weight after daily oral gavage E1.5 to E11.5 or E17.5; format: in vivo, mouse (CD-1); details: for E0.5 weight: baseline; for Relative GWG, E11.5 estimate (95% CI) / Relative GWG, E17.5 Estimate (95% CI) / Relative GWG, E11.5 Estimate (95% CI) relative to VC: adjusted for litter size
Method: (§1) Naïve female CD-1 mice between 7.5 and 15.5 wk of age from the NIEHS colony were bred in-house on a single night, and copulatory plug–positive females were identified on embryonic day (E) 0.5. Pregnant dams were singly housed in ventilated polypropylene cages and received nesting materials, National Institutes of Health (NIH)-31 diet (Zeigler Bros., Inc.) and reverse osmosis deionized (RODI) water ad libitum. Animals were housed in humidity- and temperature-controlled rooms with 25°C and 45–60% average humidity and standard 12-h light cycles. All animal procedures were approved by the NIEHS Animal Care and Use Committee (ASP #2017-0022).
(§2) PFOA and GenX dosing solutions were prepared in RODI water and administered to mice once daily via oral gavage. Daily doses were administered between 0700 and 0800 hours and adjusted to the BW of the mouse based on the previous day’s weight at a volume of 0.01mL/g BW. […] The dose of 1mg/kg BW/d PFOA, used in the mouse developmental toxicity study of [Lau et al. 2006], provided a lowest effect dose that was used to set the reference dose within the U.S. EPA’s drinking water lifetime health advisory level (HAL) of 70 ppt PFOA ([U.S. EPA 2016]).
(§3) This experiment was conducted over two blocks (Block 1 and Block 2) to achieve a total of n=11–13 litters per treatment group and sacrifice time point (E11.5 and E17.5). The experimental design of the second block was identical to the first block of the study, and experimental methods were similar but expanded upon to include more rigorous and detailed measurements. Copulatory plug–positive mice (E0.5) were weighed to obtain a baseline BW and placed into one of five groups. Once all mice were assigned to groups, mean BWs were calculated, and a few animals were reassigned so that mean BWs in each group were similar. This was done to avoid confounding effects of baseline BW. Treatment groups were then randomly assigned a color by using a random sequence generator. Experimenters and dosing technicians were blinded to the treatment group to which the color groups corresponded throughout the duration of the study, including at necropsy. […] Pregnant dams were dosed via oral gavage from E1.5 to E11.5 or from E1.5 to E17.5. […] The E11.5 early-gestation time point was selected because it overlaps a critical period of placental development in the mouse where the placenta undergoes vascularization with the uterine wall and chorioallantoic branching of vessels begins ([Watson and Cross 2005]). The E17.5 late-gestation time point was selected so that embryo weight changes that may be related to treatment would be evident.
(§4) On the day of necropsy, dams received daily oral gavage between 0700 and 0800 hours and were weighed and then euthanized humanely by swift decapitation, and serum was collected. In Block 1, necropsies were completed from 0800 to 1600 hours, and in Block 2, necropsies were completed from 0800 to 1200 hours. Serum from dams euthanized in Block 1 was snap frozen for internal dosimetry analyses. Serum and urine from Block 2 dams were reserved for clinical chemistry analyses. In both blocks, the uterus was removed, and total implantation sites were counted based on gross observation of an implantation nodule along the uterine horn. Viable embryos, nonviable embryos, and sites of resorption were counted based on gross observation. Embryos were considered viable if they were properly formed, were not pale in color, and were of similar size to neighboring embryos. Embryos that were poorly formed and pale in color (without heartbeat) were considered nonviable. Sites of resorption were defined as a dark red–appearing clot-like nodule apparent on gross observation.
(§5) From each uterus, first, viable embryos and their matched placentas were collected in succession within a horn and immediately snap frozen ( n=2–5 per litter ), and subsequent embryos were collected for growth measurements ( n=2–11 per litter ). […]

[3] = as above; format: in vivo, mouse (CD-1); details: female, CD-1, mouse, in vivo, oral; dam systemic toxicity: liver alterations, higher GWG, placental lesions; read-out: Lowest dose group evaluated, with significant adverse effects (no NOAEL reportable)
Method: as §1, §2, §3, §4, §5

humans = tested on: humans; parameters: method as in Johnson et al. 2014; details: meta-analysis; ref Johnson et al. 2014; cited from earlier work
[4] = parameters: method as in Olsen et al. 2007; details: ref Olsen et al. 2007; cited from earlier work
mice = tested on: mice; parameters: method as in Koustas et al. 2014; details: pregnant dams; meta-analysis; ref Koustas et al. 2014; cited from earlier work

N.O=C(O)C(F)(OC(F)(F)C(F)(F)C(F)(F)F)C(F)(F)F (stereo not shown) [GenX, ammonium 2,3,3,3-tetrafluoro-2-(heptafluoropropoxy)propanoate]
LOAEL, disrupted maternal lipids (rats; gestational exposure): 125 mg/kg/day | LOAEL, disrupted maternal thyroid hormone (rats; gestational exposure): 30 mg/kg/day | LOAEL, lower BWs in gestationally exposed female offspring (rats): 125 mg/kg/day | Dam plasma concentration (CD-1 mice; 5 mg/kg/d on lactation day 21, ref DuPont-18,405-1,037): 36.4 µg/mL | NOAEL for reproductive toxicity and maternal systemic toxicity (CD-1 mice; microscopic changes in maternal liver, ref DuPont-18,405-1,037 (Edwards 2010b)): 5 mg/kg/day | Elimination half-life [1]: ~5 h | Elimination half-life [2]: ~20 h | Kidney weight (Pregnant CD-1 mice; E11.5, 2 mg/kg/d): 0.22 ± 0.02 g | Liver weight (Pregnant CD-1 mice; E11.5, 2 mg/kg/d): 3.1 ± 0.2 g | Weight at necropsy (Pregnant CD-1 mice; E11.5, 2 mg/kg/d): 38.3 ± 3.2 g | Weight at necropsy (% change from E0.5) (Pregnant CD-1 mice; E11.5, 2 mg/kg/d): 28.9±5.4% | Kidney weight (Pregnant CD-1 mice; E11.5, 10 mg/kg/d): 0.23 ± 0.06 g | Liver weight (Pregnant CD-1 mice; E11.5, 10 mg/kg/d): 4.2 ± 0.5 g | Weight at necropsy (Pregnant CD-1 mice; E11.5, 10 mg/kg/d): 40.0 ± 2.5 g | Weight at necropsy (% change from E0.5) (Pregnant CD-1 mice; E11.5, 10 mg/kg/d): 32.3±9.6 % | E0.5 weight (Pregnant CD-1 mice; E11.5 group, 2 mg/kg/d): 29.7 ± 2.2 g | E0.5 weight (Pregnant CD-1 mice; E11.5 group, 10 mg/kg/d): 30.7 ± 2.5 g | Kidney weight (Pregnant CD-1 mice; E17.5, 2 mg/kg/d): 0.21 ± 0.02 g | Liver weight (Pregnant CD-1 mice; E17.5, 2 mg/kg/d): 3.5 ± 0.5 g | Weight at necropsy (Pregnant CD-1 mice; E17.5, 2 mg/kg/d): 55.4 ± 6.5 g | Weight at necropsy (% change from E0.5) (Pregnant CD-1 mice; E17.5, 2 mg/kg/d): 97.3±15.2% | Kidney weight (Pregnant CD-1 mice; E17.5, 10 mg/kg/d): 0.25 ± 0.02 g | Liver weight (Pregnant CD-1 mice; E17.5, 10 mg/kg/d): 4.6 ± 0.4 g | Weight at necropsy (Pregnant CD-1 mice; E17.5, 10 mg/kg/d): 56.7 ± 5.5 g | Weight at necropsy (% change from E0.5) (Pregnant CD-1 mice; E17.5, 10 mg/kg/d): 98.5±15.7% | E0.5 weight (Pregnant CD-1 mice; E17.5 group, 2 mg/kg/d): 28.2 ± 3.5 g | E0.5 weight (Pregnant CD-1 mice; E17.5 group, 10 mg/kg/d): 28.7 ± 3.6 g | LOAEL [3]: 2 mg/kg/day

O=C(O)C(F)(F)C(F)(F)C(F)(F)C(F)(F)C(F)(F)C(F)(F)C(F)(F)F [PFOA, Perfluorooctanoic acid]
Shift in birth weight per 1-ng/mL increase in serum PFOA (humans): -18.9 g | Kidney weight (Pregnant CD-1 mice; E11.5, 1 mg/kg/d): 0.20 ± 0.02 g | Liver weight (Pregnant CD-1 mice; E11.5, 1 mg/kg/d): 2.9 ± 0.2 g | Relative kidney weight (Pregnant CD-1 mice; E11.5, 1 mg/kg/d): 0.51±0.04 % BW | Relative liver weight (Pregnant CD-1 mice; E11.5, 1 mg/kg/d): 7.4±0.5 % BW | Weight at necropsy (Pregnant CD-1 mice; E11.5, 1 mg/kg/d): 38.8 ± 2.4 g | Weight at necropsy (% change from E0.5) (Pregnant CD-1 mice; E11.5, 1 mg/kg/d): 24.7±6.3% | Kidney weight (Pregnant CD-1 mice; E11.5, 5 mg/kg/d): 0.21 ± 0.03 g | Liver weight (Pregnant CD-1 mice; E11.5, 5 mg/kg/d): 4.5 ± 0.5 g | Relative kidney weight (Pregnant CD-1 mice; E11.5, 5 mg/kg/d): 0.51±0.05 % BW | Relative liver weight (Pregnant CD-1 mice; E11.5, 5 mg/kg/d): 11.0±0.9 % BW | Weight at necropsy (Pregnant CD-1 mice; E11.5, 5 mg/kg/d): 40.2 ± 3.5 g | Weight at necropsy (% change from E0.5) (Pregnant CD-1 mice; E11.5, 5 mg/kg/d): 29.6±6.3% | E0.5 weight (Pregnant CD-1 mice; E11.5 group, 1 mg/kg/d): 31.2 ± 3 g | E0.5 weight (Pregnant CD-1 mice; E11.5 group, 5 mg/kg/d): 31.1 ± 3.2 g | Kidney weight (Pregnant CD-1 mice; E17.5, 1 mg/kg/d): 0.22 ± 0.04 g | Liver weight (Pregnant CD-1 mice; E17.5, 1 mg/kg/d): 3.1 ± 0.4 g | Relative kidney weight (Pregnant CD-1 mice; E17.5, 1 mg/kg/d): 0.40±0.04 % BW | Relative liver weight (Pregnant CD-1 mice; E17.5, 1 mg/kg/d): 5.6±0.5 % BW | Weight at necropsy (Pregnant CD-1 mice; E17.5, 1 mg/kg/d): 54.6 ± 5.3 g | Weight at necropsy (% change from E0.5) (Pregnant CD-1 mice; E17.5, 1 mg/kg/d): 92.6±17.1% | Kidney weight (Pregnant CD-1 mice; E17.5, 5 mg/kg/d): 0.24 ± 0.03 g | Liver weight (Pregnant CD-1 mice; E17.5, 5 mg/kg/d): 5.3 ± 0.5 g | Relative kidney weight (Pregnant CD-1 mice; E17.5, 5 mg/kg/d): 0.40±0.03 % BW | Relative liver weight (Pregnant CD-1 mice; E17.5, 5 mg/kg/d): 9.3±0.7 % BW | Weight at necropsy (Pregnant CD-1 mice; E17.5, 5 mg/kg/d): 57.4 ± 6.0 g | Weight at necropsy (% change from E0.5) (Pregnant CD-1 mice; E17.5, 5 mg/kg/d): 98.7±20.2% | E0.5 weight (Pregnant CD-1 mice; E17.5 group, 1 mg/kg/d): 28.5 ± 3.8 g | E0.5 weight (Pregnant CD-1 mice; E17.5 group, 5 mg/kg/d): 29.1 ± 3.4 g | Relative GWG, E11.5 estimate (95% CI) (Pregnant CD-1 mice; 1 mg/kg/d): 16.2 (-0.2, 32.5) % gain from embryonic day 0.5 | Relative GWG, E17.5 Estimate (95% CI) (Pregnant CD-1 mice; 1 mg/kg/d): 44.9 (6.5, 83.3) % gain from embryonic day 0.5 | Relative GWG, E11.5 Estimate (95% CI) relative to VC (Pregnant CD-1 mice; 5 mg/kg/d): 4.3 (-1.8, 10.5) % gain from embryonic day 0.5 | Relative GWG, E11.5 estimate (95% CI) (Pregnant CD-1 mice; 5 mg/kg/d): 21.6 (5.4, 37.9) % gain from embryonic day 0.5 | Relative GWG, E17.5 Estimate (95% CI) (Pregnant CD-1 mice; 5 mg/kg/d): 50.7 (12.2, 89.0) % gain from embryonic day 0.5 | Relative GWG, E11.5 Estimate (95% CI) relative to VC (Pregnant CD-1 mice; 5 mg/kg/d, 5 mg/kg/day): 14.5 (1.4, 27.5) % gain from embryonic day 0.5 and 14.5 % gain from embryonic day 0.5 | Relative GWG, E11.5 Estimate (95% CI) relative to VC (Pregnant CD-1 mice; fourth column (after E17.5 estimate), 1 mg/kg/d): 8.7 (-4.3, 21.8) % gain from embryonic day 0.5 | Relative GWG, E11.5 Estimate (95% CI) relative to VC (Pregnant CD-1 mice; second column, 1 mg/kg/d): -1.1 (-7.4, 5.1) % gain from embryonic day 0.5 | Human half-life [4]: ~3.5 y | Shift in pup birth weight per 1-mg/kg BW/d increase in PFOA dose (mice): -0.023 g
